A word on the pIC50: it is −log10 of the IC50, conventionally taken in molar units. Lower therefore signals a high IC50.

The structures appear in SMILES notation. pIC50: −log10 of the molar value.

The target of the test is T1, human TLR9 (Homo sapiens, UniProt Q9NR96).
T1 sequence (Q9NR96 26-1032): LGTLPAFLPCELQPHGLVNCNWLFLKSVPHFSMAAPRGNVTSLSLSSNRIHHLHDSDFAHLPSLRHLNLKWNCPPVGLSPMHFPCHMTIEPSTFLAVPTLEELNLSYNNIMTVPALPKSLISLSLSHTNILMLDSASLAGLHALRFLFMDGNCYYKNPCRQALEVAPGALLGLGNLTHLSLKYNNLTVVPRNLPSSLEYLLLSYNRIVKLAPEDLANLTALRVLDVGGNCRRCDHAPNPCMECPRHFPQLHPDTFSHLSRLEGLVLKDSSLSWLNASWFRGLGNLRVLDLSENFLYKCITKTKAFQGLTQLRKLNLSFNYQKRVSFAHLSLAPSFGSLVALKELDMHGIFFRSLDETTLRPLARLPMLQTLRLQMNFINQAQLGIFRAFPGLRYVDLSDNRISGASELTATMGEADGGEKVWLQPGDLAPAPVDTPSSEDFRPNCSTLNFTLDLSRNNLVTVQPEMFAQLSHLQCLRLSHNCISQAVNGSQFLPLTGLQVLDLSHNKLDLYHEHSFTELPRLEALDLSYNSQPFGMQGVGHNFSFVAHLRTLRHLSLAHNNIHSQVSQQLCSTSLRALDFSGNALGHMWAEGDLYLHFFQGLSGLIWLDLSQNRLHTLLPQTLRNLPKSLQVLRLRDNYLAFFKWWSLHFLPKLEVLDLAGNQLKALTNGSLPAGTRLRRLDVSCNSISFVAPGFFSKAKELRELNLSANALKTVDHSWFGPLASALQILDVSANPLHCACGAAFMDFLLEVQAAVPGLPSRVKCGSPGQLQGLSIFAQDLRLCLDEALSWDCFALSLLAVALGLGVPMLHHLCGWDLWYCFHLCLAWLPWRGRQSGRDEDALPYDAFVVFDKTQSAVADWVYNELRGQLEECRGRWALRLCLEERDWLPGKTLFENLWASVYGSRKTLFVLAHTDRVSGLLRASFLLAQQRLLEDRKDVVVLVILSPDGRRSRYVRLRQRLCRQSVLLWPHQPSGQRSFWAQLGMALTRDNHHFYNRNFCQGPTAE
In words: HEK293-Blue-hTLR-9 cells assay (SEAP reporter, ODN2006 stimulation). The test is classed as cell-based. Particulars: HEK293-Blue-hTLR9 cells, ODN2006 ligand, 20 hrs incubation. The text has this: A stable HEK293-Blue-hTLR-9 cell line was purchased from InvivoGen (Cat. #: hkb-htlr9, San Diego, Calif., USA). These cells were originally designed for studying the stimulation of human TLR9 by monitoring the activation of NF-κB. A SEAP (secreted embryonic alkaline phosphatase) reporter gene was placed under the control of the IFN-β minimal promoter fused to five NF-κB and AP-1-binding sites. The SEAP was induced by activating NF-κB and AP-1 via stimulating HEK-Blue hTLR9 cells with TLR9 ligands. Therefore the reporter expression was declined by TLR9 antagonist under the stimulation of a ligand, such as ODN2006 (Cat. #: tlr1-2006-1, Invivogen, San Diego, Calif., USA), for incubation of 20 hrs. The cell culture supernatant SEAP reporter activity was determined using QUANTI-Blue™ kit (Cat. #: rep-qb1, Invivogen, San Diego, Calif., USA) at a wavelength of 640 nm, a detection medium that turns purple or blue in the presence of alkaline phosphatase.
HEK293-Blue-hTLR9 cells were incubated at a density of 250,000˜450,000 cells/mL in a volume of 170 μL in a 96-well plate in Dulbecco's Modified Eagle's medium (DMEM) containing 4.5 g/L glucose, 50 U/mL penicillin, […], […], 2 mM L-glutamine, 10% (v/v) heat-inactivated fetal bovine serum with addition of 20 μL test compound in a serial dilution in the presence of final DMSO at 1% and 10 μL of 20 uM ODN2006 in above DMEM, perform incubation under 37° C. in a CO2 incubator for 20 hrs. Then 20 μL of the supernatant from each well was incubated with 180 μL Quanti-blue substrate solution at 37° C. for 2 hrs and the absorbance was read at 620-655 nm using a spectrophotorneter. The signalling pathway that TLR9 activation leads to downstream NF-κB activation has been widely accepted, and therefore similar reporter assay was modified for evaluating TLR9 antagonist.

In the case of `C[C@@H]1CN(c2ccc(C#N)n3nccc23)C[C@H](CN2CCC3(CCNC3)C2)O1` (stereo partly drawn) [Example 6, 4-[(2S,6R)-2-(2,7-diazaspiro[4.4]nonan-2-ylmethyl)-6-methyl-morpholin-4-yl]pyrazolo[1,5-a]pyridine-7-carbonitrile], the pIC50 was 7.51.

As to `C[C@@H]1CN(c2ccc(C#N)n3nccc23)C[C@H](CN2CCC(C)(N)CC2)O1` [Example 29, 4-[(2S,6R)-2-[(4-amino-4-methyl-1-piperidyl)methyl]-6-methyl-morpholin-4-yl]pyrazolo[1,5-a]pyridine-7-carbonitrile], the pIC50 is 6.66.

In turn, `C[C@@H]1CN(c2ccc(C#N)n3nccc23)C[C@H](CN2CC3(CCCNCC3)C2)O1` [Example 46, 4-[(2S,6R)-2-(2,8-diazaspiro[3.6]decan-2-ylmethyl)-6-methyl-morpholin-4-yl]pyrazolo[1,5-a]pyridine-7-carbonitrile] had a pIC50 of 6.85.

For the molecule `C[C@@H]1CN(c2ccc(C#N)n3nccc23)C[C@H](CN2CCC(N)C(F)(F)C2)O1` (stereo partly drawn) [Example 34, 4-[(2S,6R)-2-[(4-amino-3,3-difluoro-1-piperidyl)methyl]-6-methyl-morpholin-4-yl]pyrazolo[1,5-a]pyridine-7-carbonitrile], the pIC50 was 4.00.

Molecule `C[C@@H]1CN(c2ccc(C#N)n3nccc23)C[C@H](CN2CCNCC2Cc2ccccc2)O1` (stereo partly drawn) [Example 59, 4-[(2S,6R)-2-[(2-benzylpiperazin-1-yl)methyl]-6-methyl-morpholin-4-yl]pyrazolo[1,5-a]pyridine-7-carbonitrile] had a negative logarithm of the IC50 (pIC50) of 5.82.

In turn, `C[C@@H]1CN(c2ccc(C#N)n3nccc23)C[C@H](CN2CCC(N)(c3ccccc3)CC2)O1` [Example 73, 4-[(2S,6R)-2-[(4-amino-4-phenyl-1-piperidyl)methyl]-6-methyl-morpholin-4-yl]pyrazolo[1,5-a]pyridine-7-carbonitrile] gave a negative logarithm of the IC50 (pIC50) of 6.66.

`C[C@@H]1CN(c2ccc(C#N)n3nccc23)C[C@H](CN2CC3CCNCC32)O1` (stereo partly drawn) [Example 56, 4-[(2S,6R)-2-(3,8-diazabicyclo[4.2.0]octan-8-ylmethyl)-6-methyl-morpholin-4-yl]pyrazolo[1,5-a]pyridine-7-carbonitrile] showed a pIC50 of 6.07.

In the case of `C[C@@H]1CN(c2ccc(C#N)n3nccc23)C[C@H](CN2CCC(CN)CC2)O1` [Example 12, 4-[(2S,6R)-2-[[4-(aminomethyl)-1-piperidyl]methyl]-6-methyl-morpholin-4-yl]pyrazolo[1,5-a]pyridine-7-carbonitrile], the pIC50 was 6.70.

With `C[C@@H]1CN(c2ccc(C#N)n3nccc23)C[C@H](CN2CCC3(CCCN3)CC2)O1` [Example 53, 4-[(2S,6R)-2-(1,8-diazaspiro[4.5]decan-8-ylmethyl)-6-methyl-morpholin-4-yl]pyrazolo[1,5-a]pyridine-7-carbonitrile], the pIC50 was 6.80.

In the case of `C[C@@H]1CN(c2ccc(C#N)n3nccc23)C[C@H](CN2C[C@H]3CC[C@@H](N(C)C)[C@H]3C2)O1` (racemic) [Example 75, 4-[(2S,6R)-2-[[4-(dimethylamino)-3,3a,4,5,6,6a-hexahydro-1H-cyclopenta[c]pyrrol-2-yl]methyl]-6-methyl-morpholin-4-yl]pyrazolo[1,5-a]pyridine-7-carbonitrile], the pIC50 was 6.54.

Regarding `C[C@@H]1CN(c2ccc(C#N)n3nccc23)C[C@H](CN2CCC3(CCNCC3)CC2)O1` [Example 3, 4-[(2S,6R)-2-(3,9-diazaspiro[5.5]undecan-3-ylmethyl)-6-methyl-morpholin-4-yl]pyrazolo[1,5-a]pyridine-7-carbonitrile], the pIC50 is 7.05.

In turn, `CC1CNCCN1C[C@H]1CN(c2ccc(C#N)n3nccc23)C[C@@H](C)O1` (single isomer, unassigned) [Example 50B] gave a pIC50 of 4.62.

In turn, `C[C@@H]1CN(c2ccc(C#N)n3nccc23)C[C@H](CN2CCC3(CCCNC3)C2)O1` (stereo partly drawn) [Example 25, 4-[(2S,6R)-2-(2,9-diazaspiro[4.5]decan-2-ylmethyl)-6-methyl-morpholin-4-yl]pyrazolo[1,5-a]pyridine-7-carbonitrile] had a pIC50 of 7.06.

The molecule `C[C@@H]1CN(c2ccc(C#N)n3nccc23)C[C@H](CN2CCN(C3CCNCC3)CC2Cc2ccccc2)O1` (stereo partly drawn) [Example 77, 4-[(2S,6R)-2-[[2-benzyl-4-(4-piperidyl)piperazin-1-yl]methyl]-6-methyl-morpholin-4-yl]pyrazolo[1,5-a]pyridine-7-carbonitrile] gave a pIC50 of 6.82.

As for `C[C@@H]1CN(c2ccc(C#N)n3nccc23)C[C@H](CN2CCN(C)CC2)O1` [Example 15, 4-[(2R,6S)-2-methyl-6-[(4-methylpiperazin-1-yl)methyl]morpholin-4-yl]pyrazolo[1,5-a]pyridine-7-carbonitrile], the pIC50 is 4.64.

With `C[C@@H]1CN(c2ccc(C#N)n3nccc23)C[C@H](CN2C3CCC2CNC3)O1` [Example 43, 4-[(2S,6R)-2-(3,8-diazabicyclo[3.2.1]octan-8-ylmethyl)-6-methyl-morpholin-4-yl]pyrazolo[1,5-a]pyridine-7-carbonitrile], the pIC50 was 5.00.

`C[C@@H]1CN(c2ccc(C#N)n3nccc23)C[C@H](CN2CCC(N3CCN(C)CC3)CC2)O1` [Example 1, 4-[(2R,6S)-2-methyl-6-[[4-(4-methylpiperazin-1-yl)-1-piperidyl]methyl]morpholin-4-yl]pyrazolo[1,5-a]pyridine-7-carbonitrile] gave a pIC50 of 6.89.

`C[C@@H]1CN(c2ccc(C#N)n3nccc23)C[C@H](CN2CC3(CC(N)C3)C2)O1` [Example 11, 4-[(2S,6R)-2-[(6-amino-2-azaspiro[3.3]heptan-2-yl)methyl]-6-methyl-morpholin-4-yl]pyrazolo[1,5-a]pyridine-7-carbonitrile]: the negative-log IC50 (pIC50) was 7.01.

As to `C[C@@H]1CN(c2ccc(C#N)n3nccc23)C[C@H](CN2CCC3(CCCCN3)CC2)O1` [Example 47, 4-[(2S,6R)-2-(1,9-diazaspiro[5.5]undecan-9-ylmethyl)-6-methyl-morpholin-4-yl]pyrazolo[1,5-a]pyridine-7-carbonitrile], the negative logarithm of the IC50 (pIC50) was 6.72.

Molecule `C[C@@H]1CN(c2ccc(C#N)n3nccc23)C[C@H](CN2CC3CNCCC32)O1` (stereo partly drawn) [Example 52, 4-[(2S,6R)-2-(3,7-diazabicyclo[4.2.0]octan-7-ylmethyl)-6-methyl-morpholin-4-yl]pyrazolo[1,5-a]pyridine-7-carbonitrile] gave a pIC50 of 6.59.

For `C[C@@H]1CN(c2ccc(C#N)n3nccc23)C[C@H](CN2CCCC3(CNC3)C2)O1` [Example 33, 4-[(2S,6R)-2-(2,6-diazaspiro[3.5]nonan-6-ylmethyl)-6-methyl-morpholin-4-yl]pyrazolo[1,5-a]pyridine-7-carbonitrile], the pIC50 was 6.92.

Consider `C[C@@H]1CN(c2ccc(C#N)n3nccc23)C[C@H](CN2CC3CCCNC3C2)O1` (stereo partly drawn) [Example 45, 4-[(2S,6R)-2-(1,2,3,4,4a,5,7,7a-octahydropyrrolo[3,4-b]pyridin-6-ylmethyl)-6-methyl-morpholin-4-yl]pyrazolo[1,5-a]pyridine-7-carbonitrile], for which the pIC50 was 6.01.

Turning to `C[C@@H]1CN(c2ccc(C#N)n3nccc23)C[C@H](CN2C3COCC2CC(N)C3)O1` (stereo partly drawn) [Example 58, 4-[(2S,6R)-2-[(7-amino-3-oxa-9-azabicyclo[3.3.1]nonan-9-yl)methyl]-6-methyl-morpholin-4-yl]pyrazolo[1,5-a]pyridine-7-carbonitrile], the negative logarithm of the IC50 (pIC50) is 6.41.

The values are drawn from patent US20220112187A1, “PYRAZOLOPYRIDINE AMINE COMPOUNDS FOR THE TREATMENT OF AUTOIMMUNE DISEASE” (Hoffmann-La Roche Inc., priority 2018, published 2022).
